The text below walks through data of patent US4994270A, “A54145 antibiotics and process for their production” (Eli Lilly and Company, priority 1988, dated 1991).

For experiment [1], the system named is Streptococcus sp. group 2041. The experiment is described as follows: MIC, conventional agar-dilution assay. It is filed as cell-based. As to the method: (§1) The A54145 antibiotics inhibit the growth of pathogenic bacteria. […] The MIC's in Table IX were determined by conventional agar-dilution assays.
Experiment [2] relates to Staphylococcus epidermidis 222. The experiment in a line: MIC, conventional agar-dilution assay. In kind it is cell-based. How it is done:
as §1

Experiment [3] relates to Staphylococcus epidermidis EPI1. The experiment in a line: MIC, conventional agar-dilution assay. It is filed as cell-based. As to the method:
as §1

Experiment [4] deals with Streptococcus sp. group D X66. The experiment in a line: MIC, conventional agar-dilution assay. In kind it is cell-based. How it is done: as §1
Experiment [5] deals with Streptococcus pyogenes C203. The experiment is described as follows: MIC, conventional agar-dilution assay. It is filed as cell-based. As to the method:
as §1

In experiment [6] the test system is Staphylococcus aureus X1.1. The experiment is described as follows: MIC, conventional agar-dilution assay. It is filed as cell-based. How it is done:
as §1

For experiment [7], the system named is Staphylococcus aureus X400. The experiment is described as follows: MIC, conventional agar-dilution assay. In kind it is cell-based. How it is done: as §1
Experiment [8] deals with Staphylococcus aureus S13E. The experiment is described as follows: MIC, conventional agar-dilution assay. In kind it is cell-based. As to the method: as §1
Experiment [9] deals with Staphylococcus aureus V41. The experiment in a line: MIC, conventional agar-dilution assay. It is filed as cell-based. As to the method: as §1
Experiment [10] deals with Streptococcus pneumoniae Park1. The experiment in a line: MIC, conventional agar-dilution assay. It is filed as cell-based. As to the method:
as §1

The subject of experiment [11] is Streptomyces fradiae A54145.1, A54145.2 and A54145.3. The experiment is described as follows: Resistance to antibiotics, sensitivity discs on seeded ISP No. 2 agar plates. Particulars: identical for A54145.1, A54145.2, A54145.3; lincomycin 2 μg, penicillin G 10 units, bacitracin 10 units, cephalothin 30 μg, gentamicin 10 μg, neomycin 30 μg, oleandomycin 15 μg, rifampin 5 μg, streptomycin 10 μg, tetracycline 30 μg, tobramycin 10 μg, vancomycin 30 μg.
Method: Resistance to antibiotics was measured by padding antibiotic sensitivity discs onto the surface of seeded ISP No. 2 agar plates.

Experiment [12] is described as follows: Chick growth performance test (weight gain, feed efficiency). In kind it is in vivo, chicks. Particulars: Table XIII; for Weight Gain Amt.: chicks 7-14 days of age; for Feed/Gain % Impr. / Weight Gain % Impr.: relative to the control mean. The text has this:
In the tests, the compounds were given to chicks at the concentrations indicated in the feed. The test period was the 7-day period from 7-14 days of age of the birds. Growth performance (weight gain, feed consumption and feed efficiency) was compared to that of contemporary controls.

Converted amounts (≈) assume the structure as drawn. Starred links: 1 amine or outer side, 2 acyl side, 3 side chain; linkers in the order of their positions; H or OH if unused. Positions of bridges follow the written chain, without caps; N, C: chain ends. Non-standard residues stand in square brackets, D forms with d. Residues, ends and D or L forms follow the SMILES beside them. ξ: configuration not given here. *: point of attachment. Ileψ(thiazoline)Cys = CC[C@H](C)[C@H](N)C1=N[C@H](C(=O)*)CS1; ξAsp(3ξ-OMe) = COC(C(=O)O)C(N)C(=O)O; X1 = CC(CC(=O)O)C(N[*:1])C(=O)[*:2]; ξAsn(3ξ-OH) = NC(=O)C(O)C(N)C(=O)O; dOrn = NCCC[C@@H](N)C(=O)O; X3 = CCC(C)CCCCCCC(=O)*; X2 = CC(C)CCCCCCC(=O)*; Sar = CNCC(=O)O Some results are limits rather than exact numbers.

As to `CCC(C)CCCCCCC(=O)NC(Cc1c[nH]c2ccccc12)C(=O)NC(CCC(=O)O)C(=O)NC(C(=O)NC1C(=O)N(C)CC(=O)NC(C)C(=O)NC(CC(=O)O)C(=O)NC(CCCCN)C(=O)NC(C(OC)C(=O)O)C(=O)NCC(=O)NC(CC(N)=O)C(=O)NC(C(C)CC(=O)O)C(=O)NC(C(C)CC)C(=O)OC1C)C(O)C(N)=O` (centres unmarked) [Component A54145E] (X3-WE[ξAsn(3ξ-OH)]T[Sar]ADK[ξAsp(3ξ-OMe)]GN[X1]I; ester 4-C; configuration not given here), the MIC in [1] worked out at 4 µg/mL (≈ 2.39 µM); in [2], 1 µg/mL (≈ 0.598 µM); in experiment [3], 1 µg/mL (≈ 0.598 µM); in experiment [4], 2 µg/mL (≈ 1.2 µM); in experiment [5], 0.25 µg/mL (≈ 0.149 µM); in [6] it was 1 µg/mL (≈ 0.598 µM). Also, the MIC was found to be 2 µg/mL (≈ 1.2 µM) in [7], 2 µg/mL (≈ 1.2 µM) in experiment [8], 2 µg/mL (≈ 1.2 µM) in [9] and 1 µg/mL (≈ 0.598 µM) in experiment [10].
`CC1(C)S[C@@H]2[C@H](NC(=O)Cc3ccccc3)C(=O)N2[C@H]1C(=O)O` [penicillin G]: in [11], the “resistance or sensitivity of the strains to antibiotic discs” value (from here on “resistance or sensitivity of the strains”) is reported as “resistant”.
For `CO[C@H]1C[C@H](O[C@H]2[C@H](C)[C@@H](O[C@@H]3O[C@H](C)C[C@H](N(C)C)[C@H]3O)[C@@H](C)C[C@@]3(CO3)C(=O)[C@H](C)[C@@H](O)[C@@H](C)[C@@H](C)OC(=O)[C@@H]2C)O[C@@H](C)[C@@H]1O` [oleandomycin], the “resistance or sensitivity of the strains” value in [11] is reported as “sensitive”.
For `CC(=O)OCC1=C(C(=O)O)N2C(=O)[C@@H](NC(=O)Cc3cccs3)[C@H]2SC1` [cephalothin], the “resistance or sensitivity of the strains” value in experiment [11] was “sensitive”.
On the same count and under the same terms, in the case of `NC[C@H]1O[C@H](O[C@H]2[C@H](O)[C@@H](O[C@H]3O[C@H](CO)[C@@H](O)[C@H](N)[C@H]3O)[C@H](N)C[C@@H]2N)[C@H](N)C[C@@H]1O` [tobramycin] it was “sensitive”; in that of `CC[C@H](C)[C@H](N)C1=N[C@H](C(=O)N[C@@H](CC(C)C)C(=O)N[C@H](CCC(=O)O)C(=O)N[C@H](C(=O)N[C@H]2CCCCNC(=O)[C@H](CC(N)=O)NC(=O)[C@@H](CC(=O)O)NC(=O)[C@H](Cc3cnc[nH]3)NC(=O)[C@@H](Cc3ccccc3)NC(=O)[C@H]([C@@H](C)CC)NC(=O)[C@@H](CCCN)NC2=O)[C@@H](C)CC)CS1` [bacitracin] ({Ileψ(thiazoline)Cys}-L[dE]IK[dOrn]I[dF]H[dD]N; lactam 4-C), “sensitive”.
On to gentamicin, for which the “resistance or sensitivity of the strains” value in experiment [11] was “sensitive”.
On to `CN[C@H](CC(C)C)C(=O)N[C@H]1C(=O)N[C@@H](CC(N)=O)C(=O)N[C@H]2C(=O)N[C@H]3C(=O)N[C@H](C(=O)N[C@H](C(=O)O)c4cc(O)cc(O)c4-c4cc3ccc4O)[C@H](O)c3ccc(c(Cl)c3)Oc3cc2cc(c3O[C@@H]2O[C@H](CO)[C@@H](O)[C@H](O)[C@H]2O[C@H]2C[C@](C)(N)[C@H](O)[C@H](C)O2)Oc2ccc(cc2Cl)[C@H]1O` [vancomycin], for which the “resistance or sensitivity of the strains” value in [11] is “sensitive”.
`CCC(C)C1NC(=O)C(C(C)CC(=O)O)NC(=O)C(CC(N)=O)NC(=O)CNC(=O)C(C(OC)C(=O)O)NC(=O)C(CCCCN)NC(=O)C(CC(=O)O)NC(=O)C(C)NC(=O)CN(C)C(=O)C(NC(=O)C(NC(=O)C(CCC(=O)O)NC(=O)C(Cc2c[nH]c3ccccc23)NC(=O)CCCCCCC(C)C)C(O)C(N)=O)C(C)OC1=O` (centres unmarked) [Component A54145B1] (X2-WE[ξAsn(3ξ-OH)]T[Sar]ADK[ξAsp(3ξ-OMe)]GN[X1]I; ester 4-C; configuration not given here): the “Feed/Gain Ratio” value in experiment [12] (5 g/ton) was determined as 1.906; in experiment [12] (10 g/ton), 1.860; in experiment [12] (20 g/ton), 1.686. In addition, the “Weight Gain Amt.” value stood at 326 g in experiment [12] (5 g/ton in feed), 358 g in experiment [12] (10 g/ton in feed) and 448 g in experiment [12] (20 g/ton in feed). Moreover, the “Feed/Gain % Impr.” value was found to be 5.3% in [12] (5 g/ton), 7.4% in experiment [12] (10 g/ton) and 16.2% in [12] (20 g/ton). In addition, the “Weight Gain % Impr.” value in experiment [12] (5 g/ton) is given as 3.5%; in experiment [12] (10 g/ton), 13.7%; in experiment [12] (20 g/ton), 42.2%. For the same molecule, the MIC in [1] was 32 µg/mL (≈ 19.3 µM); in [2], 1 µg/mL (≈ 0.603 µM); in [3] it was 1 µg/mL (≈ 0.603 µM); in [4], 8 µg/mL (≈ 4.82 µM); in [5], 0.5 µg/mL (≈ 0.301 µM); in experiment [6] it was 2 µg/mL (≈ 1.21 µM). Besides, the MIC in experiment [7], in experiment [8], in experiment [9] and in experiment [10] was 2 µg/mL (≈ 1.21 µM) throughout.
On to `CCC(C)CCCCCCC(=O)NC(Cc1c[nH]c2ccccc12)C(=O)NC(CCC(=O)O)C(=O)NC(C(=O)NC1C(=O)N(C)CC(=O)NC(C)C(=O)NC(CC(=O)O)C(=O)NC(CCCCN)C(=O)NC(C(OC)C(=O)O)C(=O)NCC(=O)NC(CC(N)=O)C(=O)NC(CCC(=O)O)C(=O)NC(C(C)CC)C(=O)OC1C)C(O)C(N)=O` (centres unmarked) [Component A54145D] (X3-WE[ξAsn(3ξ-OH)]T[Sar]ADK[ξAsp(3ξ-OMe)]GNEI; ester 4-C; configuration not given here), for which the MIC in experiment [1] was determined as 32 µg/mL (≈ 19.3 µM); in experiment [2], 2 µg/mL (≈ 1.21 µM); in experiment [3] it was 2 µg/mL (≈ 1.21 µM); in [4], 4 µg/mL (≈ 2.41 µM); in experiment [5] it was 0.5 µg/mL (≈ 0.301 µM); in experiment [6], 4 µg/mL (≈ 2.41 µM). Besides, the MIC in experiment [7], in experiment [8], in [9] and in experiment [10] was 4 µg/mL (≈ 2.41 µM) each time.
As to `[H]/N=C(/N)N[C@H]1[C@H](O)[C@@H](O)[C@H](O[C@@H]2O[C@@H](C)[C@](O)(C=O)[C@H]2O[C@@H]2O[C@@H](CO)[C@H](O)[C@@H](O)[C@@H]2NC)[C@@H](N/C(N)=N\[H])[C@@H]1O` [streptomycin], in [11], the “resistance or sensitivity of the strains” value was “sensitive”.
For `CCC(C)CCCCCCC(=O)NC(Cc1c[nH]c2ccccc12)C(=O)NC(CCC(=O)O)C(=O)NC(C(=O)NC1C(=O)N(C)CC(=O)NC(C)C(=O)NC(CC(=O)O)C(=O)NC(CCCCN)C(=O)NC(C(OC)C(=O)O)C(=O)NCC(=O)NC(CC(N)=O)C(=O)NC(C(C)CC(=O)O)C(=O)NC(C(C)C)C(=O)OC1C)C(O)C(N)=O` (centres unmarked) [Component A54145C] (X3-WE[ξAsn(3ξ-OH)]T[Sar]ADK[ξAsp(3ξ-OMe)]GN[X1]V; ester 4-C; configuration not given here), the MIC stood at 4 µg/mL (≈ 2.41 µM) in experiment [1]; 1 µg/mL (≈ 0.603 µM) in experiment [2]; 2 µg/mL (≈ 1.21 µM) in [3]; 4 µg/mL (≈ 2.41 µM) in [4]; 0.5 µg/mL (≈ 0.301 µM) in experiment [5]; 2 µg/mL (≈ 1.21 µM) in experiment [6]. The MIC in experiment [7], in experiment [8], in [9] and in [10] was 2 µg/mL (≈ 1.21 µM) in each case.
As to neomycin, the “resistance or sensitivity of the strains” value in experiment [11] is on record as “sensitive”.
For the molecule `COC(C(=O)O)C1NC(=O)C(CCCCN)NC(=O)C(CC(=O)O)NC(=O)C(C)NC(=O)CN(C)C(=O)C(NC(=O)C(NC(=O)C(CCC(=O)O)NC(=O)C(Cc2c[nH]c3ccccc23)NC(=O)CCCCCCC(C)C)C(O)C(N)=O)C(C)OC(=O)C(C(C)C)NC(=O)C(CCC(=O)O)NC(=O)C(CC(N)=O)NC(=O)CNC1=O` (centres unmarked) [Component A54145F] (X2-WE[ξAsn(3ξ-OH)]T[Sar]ADK[ξAsp(3ξ-OMe)]GNEV; ester 4-C; configuration not given here), the MIC in experiment [1] was more than 32 µg/mL; in experiment [2] it was 8 µg/mL (≈ 4.91 µM); in experiment [3] it was 16 µg/mL (≈ 9.81 µM); in experiment [4] it was 16 µg/mL (≈ 9.81 µM); in experiment [5], 4 µg/mL (≈ 2.45 µM); in experiment [6] it was 16 µg/mL (≈ 9.81 µM). For the same molecule, the MIC turned out to be 16 µg/mL (≈ 9.81 µM) in experiment [7], 16 µg/mL (≈ 9.81 µM) in experiment [8], 16 µg/mL (≈ 9.81 µM) in experiment [9] and 8 µg/mL (≈ 4.91 µM) in experiment [10].
Take `CO[C@H]1/C=C/O[C@@]2(C)Oc3c(C)c(O)c4c(O)c(c(/C=N/N5CCN(C)CC5)c(O)c4c3C2=O)NC(=O)/C(C)=C\C=C\[C@H](C)[C@H](O)[C@@H](C)[C@@H](O)[C@@H](C)[C@H](OC(C)=O)[C@@H]1C` [rifampin]: the “resistance or sensitivity of the strains” value in [11] is “sensitive”.
For `CCC[C@@H]1C[C@@H](C(=O)N[C@@H]([C@H]2O[C@H](SC)[C@H](O)[C@@H](O)[C@H]2O)[C@@H](C)O)N(C)C1` [lincomycin], the “resistance or sensitivity of the strains” value in experiment [11] is recorded as “resistant”.
On the same count and under the same terms, in the case of `CN(C)[C@@H]1C(O)=C(C(N)=O)C(=O)[C@@]2(O)C(O)=C3C(=O)c4c(O)cccc4[C@@](C)(O)[C@H]3C[C@@H]12` [tetracycline] it was “sensitive”.
